Legend:
Experiment in all cases: relative viability (nuclei count vs DMSO), 5 days (fraction); higher = more cells survive
[1] = compound: COc1ncc(-c2ccc3nccc(-c4ccnnc4)c3c2)cc1NS(=O)(=O)c1ccc(F)cc1F [Omipalisib]
Outline: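 Lung cancer cell lines were seeded into 1536-well plates, kept overnight at 37 °C and pinned with five library-drug doses (not always all listed) spaced by √10. After 5 days, nuclei were Hoechst-stained, imaged at 4× and counted with MetaXpress. Viability is treated-well nuclei over vehicle-well nuclei, taken as a median across plates. Plates needed control CV below 25% and at least one doubling.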

[2] = compound: COc1ncc(-c2ccc3nccc(-c4ccnnc4)c3c2)cc1NS(=O)(=O)c1ccc(F)cc1F [Omipalisib] + CC(=O)Nc1cccc(-n2c(=O)n(C3CC3)c(=O)c3c(Nc4ccc(I)cc4F)n(C)c(=O)c(C)c32)c1 [Trametinib] (partner 0.02 µM)
Outline: (§1)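 Lung cancer cell lines in 1536-well plates got either a single drug or a fixed anchor-drug dose together with five library-drug doses (not always all listed) in √10 steps, by pin tool, on the day after seeding. Nuclei were counted after 5 days, and relative viability is the treated-to-vehicle ratio of nuclei counts. Values are medians of duplicate plates.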

[3] = compound: COc1ncc(-c2ccc3nccc(-c4ccnnc4)c3c2)cc1NS(=O)(=O)c1ccc(F)cc1F [Omipalisib] + CC(=O)c1c(C)c2cnc(Nc3ccc(N4CCNCC4)cn3)nc2n(C2CCCC2)c1=O [Palbociclib] (partner 0.5 µM)
Outline: as §1

[4] = compound: COc1ncc(-c2ccc3nccc(-c4ccnnc4)c3c2)cc1NS(=O)(=O)c1ccc(F)cc1F [Omipalisib] + COc1cc2c(Oc3ccc(NC(=O)C4(C(=O)Nc5ccc(F)cc5)CC4)cc3F)ccnc2cc1OCCCN1CCOCC1 [Foretinib] (partner 0.25 µM)
Outline: as §1

[5] = compound: COc1ncc(-c2ccc3nccc(-c4ccnnc4)c3c2)cc1NS(=O)(=O)c1ccc(F)cc1F [Omipalisib] + C[C@@H](Oc1cc(-c2cnn(C3CCNCC3)c2)cnc1N)c1c(Cl)ccc(F)c1Cl [Crizotinib] (partner 1 µM)
Outline: as §1

[6] = compound: COc1ncc(-c2ccc3nccc(-c4ccnnc4)c3c2)cc1NS(=O)(=O)c1ccc(F)cc1F [Omipalisib] + Cc1cc(Nc2cc(N3CCN(C)CC3)nc(Sc3ccc(NC(=O)C4CC4)cc3)n2)n[nH]1 [Tozasertib] (partner 0.1 µM)
Outline: as §1

Cell Line: NCI-H1651
- relative viability ([1]; 0.0003 µM): 0.928
- relative viability ([1]; 0.003 µM): 0.851
- relative viability ([1]; 0.03 µM): 0.595
- relative viability ([2]; first compound 0.0003 µM): 0.712
- relative viability ([2]; first compound 0.003 µM): 0.711
- relative viability ([2]; first compound 0.03 µM): 0.535
- relative viability ([3]; first compound 0.0003 µM): 0.464
- relative viability ([3]; first compound 0.003 µM): 0.401
- relative viability ([3]; first compound 0.03 µM): 0.294
- relative viability ([4]; first compound 0.0003 µM): 0.664
- relative viability ([4]; first compound 0.003 µM): 0.497
- relative viability ([4]; first compound 0.03 µM): 0.489
- relative viability ([5]; first compound 0.0003 µM): 0.749
- relative viability ([5]; first compound 0.003 µM): 0.762
- relative viability ([5]; first compound 0.03 µM): 0.569
- relative viability ([6]; first compound 0.0003 µM): 0.711
- relative viability ([6]; first compound 0.003 µM): 0.384
- relative viability ([6]; first compound 0.03 µM): 0.539

Cell Line: LCLC-103H
- relative viability ([1]; 0.0003 µM): 1.04
- relative viability ([1]; 0.003 µM): 0.745
- relative viability ([1]; 0.03 µM): 0.617
- relative viability ([2]; first compound 0.0003 µM): 0.602
- relative viability ([2]; first compound 0.003 µM): 0.524
- relative viability ([2]; first compound 0.03 µM): 0.401
- relative viability ([3]; first compound 0.0003 µM): 0.481
- relative viability ([3]; first compound 0.003 µM): 0.479
- relative viability ([3]; first compound 0.03 µM): 0.356
- relative viability ([4]; first compound 0.0003 µM): 0.676
- relative viability ([4]; first compound 0.003 µM): 0.418
- relative viability ([4]; first compound 0.03 µM): 0.236
- relative viability ([5]; first compound 0.0003 µM): 1.07
- relative viability ([5]; first compound 0.003 µM): 0.922
- relative viability ([5]; first compound 0.03 µM): 0.63
- relative viability ([6]; first compound 0.0003 µM): 0.406
- relative viability ([6]; first compound 0.003 µM): 0.361
- relative viability ([6]; first compound 0.03 µM): 0.18

Cell Line: LXF-289
- relative viability ([1]; 0.0003 µM): 1.04
- relative viability ([1]; 0.003 µM): 1.08
- relative viability ([1]; 0.03 µM): 0.943
- relative viability ([2]; first compound 0.0003 µM): 0.65
- relative viability ([2]; first compound 0.003 µM): 0.747
- relative viability ([2]; first compound 0.03 µM): 0.407
- relative viability ([3]; first compound 0.0003 µM): 0.62
- relative viability ([3]; first compound 0.003 µM): 0.574
- relative viability ([3]; first compound 0.03 µM): 0.416
- relative viability ([4]; first compound 0.0003 µM): 0.977
- relative viability ([4]; first compound 0.003 µM): 0.912
- relative viability ([4]; first compound 0.03 µM): 0.626
- relative viability ([5]; first compound 0.0003 µM): 0.846
- relative viability ([5]; first compound 0.003 µM): 0.924
- relative viability ([5]; first compound 0.03 µM): 0.712
- relative viability ([6]; first compound 0.0003 µM): 0.21
- relative viability ([6]; first compound 0.003 µM): 0.0991
- relative viability ([6]; first compound 0.03 µM): 0.0753

Cell Line: NCI-H2023
- relative viability ([1]; 0.0003 µM): 0.847
- relative viability ([1]; 0.003 µM): 0.535
- relative viability ([1]; 0.03 µM): 0.203
- relative viability ([2]; first compound 0.0003 µM): 0.492
- relative viability ([2]; first compound 0.003 µM): 0.358
- relative viability ([2]; first compound 0.03 µM): 0.149
- relative viability ([3]; first compound 0.0003 µM): 0.383
- relative viability ([3]; first compound 0.003 µM): 0.213
- relative viability ([3]; first compound 0.03 µM): 0.0832
- relative viability ([4]; first compound 0.0003 µM): 0.908
- relative viability ([4]; first compound 0.003 µM): 0.433
- relative viability ([4]; first compound 0.03 µM): 0.233
- relative viability ([5]; first compound 0.0003 µM): 0.569
- relative viability ([5]; first compound 0.003 µM): 0.407
- relative viability ([5]; first compound 0.03 µM): 0.18
- relative viability ([6]; first compound 0.0003 µM): 0.309
- relative viability ([6]; first compound 0.003 µM): 0.282
- relative viability ([6]; first compound 0.03 µM): 0.151

Cell Line: NCI-H650
- relative viability ([1]; 0.0003 µM): 0.876
- relative viability ([1]; 0.003 µM): 0.745
- relative viability ([1]; 0.03 µM): 0.51
- relative viability ([2]; first compound 0.0003 µM): 0.925
- relative viability ([2]; first compound 0.003 µM): 0.628
- relative viability ([2]; first compound 0.03 µM): 0.393
- relative viability ([3]; first compound 0.0003 µM): 0.297
- relative viability ([3]; first compound 0.003 µM): 0.275
- relative viability ([3]; first compound 0.03 µM): 0.222
- relative viability ([4]; first compound 0.0003 µM): 1.04
- relative viability ([4]; first compound 0.003 µM): 0.877
- relative viability ([4]; first compound 0.03 µM): 0.613
- relative viability ([5]; first compound 0.0003 µM): 0.671
- relative viability ([5]; first compound 0.003 µM): 0.472
- relative viability ([5]; first compound 0.03 µM): 0.338
- relative viability ([6]; first compound 0.0003 µM): 0.665
- relative viability ([6]; first compound 0.003 µM): 0.608
- relative viability ([6]; first compound 0.03 µM): 0.396

Cell Line: NCI-H1395
- relative viability ([1]; 0.0003 µM): 0.901
- relative viability ([1]; 0.003 µM): 0.706
- relative viability ([1]; 0.03 µM): 0.649
- relative viability ([2]; first compound 0.0003 µM): 1.05
- relative viability ([2]; first compound 0.003 µM): 0.83
- relative viability ([2]; first compound 0.03 µM): 0.615
- relative viability ([3]; first compound 0.0003 µM): 0.623
- relative viability ([3]; first compound 0.003 µM): 0.563
- relative viability ([3]; first compound 0.03 µM): 0.464
- relative viability ([4]; first compound 0.0003 µM): 0.916
- relative viability ([4]; first compound 0.003 µM): 0.886
- relative viability ([4]; first compound 0.03 µM): 0.586
- relative viability ([6]; first compound 0.0003 µM): 0.743
- relative viability ([6]; first compound 0.003 µM): 0.764
- relative viability ([6]; first compound 0.03 µM): 0.506

Cell Line: NCI-H322M
- relative viability ([1]; 0.0003 µM): 0.892
- relative viability ([1]; 0.003 µM): 0.728
- relative viability ([1]; 0.03 µM): 0.622
- relative viability ([2]; first compound 0.0003 µM): 0.478
- relative viability ([2]; first compound 0.003 µM): 0.453
- relative viability ([2]; first compound 0.03 µM): 0.416
- relative viability ([3]; first compound 0.0003 µM): 0.427
- relative viability ([3]; first compound 0.003 µM): 0.446
- relative viability ([3]; first compound 0.03 µM): 0.449
- relative viability ([4]; first compound 0.0003 µM): 0.888
- relative viability ([4]; first compound 0.003 µM): 0.684
- relative viability ([4]; first compound 0.03 µM): 0.566
- relative viability ([5]; first compound 0.0003 µM): 0.859
- relative viability ([5]; first compound 0.003 µM): 0.843
- relative viability ([5]; first compound 0.03 µM): 0.532
- relative viability ([6]; first compound 0.0003 µM): 0.467
- relative viability ([6]; first compound 0.003 µM): 0.407
- relative viability ([6]; first compound 0.03 µM): 0.348

Cell Line: NCI-H23
- relative viability ([1]; 0.0003 µM): 0.913
- relative viability ([1]; 0.003 µM): 0.594
- relative viability ([1]; 0.03 µM): 0.464
- relative viability ([2]; first compound 0.0003 µM): 0.353
- relative viability ([2]; first compound 0.003 µM): 0.244
- relative viability ([2]; first compound 0.03 µM): 0.152
- relative viability ([3]; first compound 0.0003 µM): 0.391
- relative viability ([3]; first compound 0.003 µM): 0.239
- relative viability ([3]; first compound 0.03 µM): 0.211
- relative viability ([4]; first compound 0.0003 µM): 0.851
- relative viability ([4]; first compound 0.003 µM): 0.681
- relative viability ([4]; first compound 0.03 µM): 0.461
- relative viability ([5]; first compound 0.0003 µM): 0.425
- relative viability ([5]; first compound 0.003 µM): 0.263
- relative viability ([5]; first compound 0.03 µM): 0.283
- relative viability ([6]; first compound 0.0003 µM): 0.342
- relative viability ([6]; first compound 0.003 µM): 0.295
- relative viability ([6]; first compound 0.03 µM): 0.265
